Data from patent US20240082282A1 (priority 2020, published 2024).

Assays:
[1] = system: B. turcica KLEX1; assay: MIC of hygromycin A resistant mutant; type: cell-based
[2] = system: GFP-inducible B. burgdorferi strain pCRW53; assay: Measurement of protein synthesis inhibition (GFP, FACS); type: cell-based
[3] = system: HEK293; details: HEK293, alamar blue, 72 hours
[4] = system: Leptospira interrogans ATCC BAA-1198
[5] = system: B. burgdorferi hygromycin A resistant mutant KLEx2; assay: RNAseq of hygromycin A treated vs untreated cells; type: cell-based; details: for log2 Fold Change: 4 ug/ml hygromycin A vs untreated
[6] = system: Borrelia burgdorferi BbP1286
[7] = system: B. burgdorferi B31 KLEX2; assay: MIC of hygromycin A resistant mutant; type: cell-based
[8] = system: FaDu; details: alamar blue, 72 hours

Hygromycin A
MIC ([1]; B. turcica KLEX1, stable hygromycin A resistance): 8 µg/mL
MIC increase as compared to wild type parent strain ([1]; B. turcica KLEX1 vs parent): 16 fold
GFP level as compared to control (protein synthesis) [2]: dramatically lower level of GFP
Maximal non-toxic dose tested relative to minimal efficacious dose (500 mg/kg vs minimal efficacious dose): 10 fold
Toxicity at maximal dose tested (C3H mice, 500 mg/kg, preliminary data): absence of toxicity
Signs of toxicity (any of the doses used in the efficacy experiments (IP, gavage, bait)): no signs of toxicity
Indications of toxicity (even at very high doses): no indications of toxicity
Biosafety window (preliminary testing): > 500 mg/kg
IC50 [3]: >512 µg/mL
Minimum inhibitory concentration (MIC) [4]: 4 µg/mL
log2 Fold Change ([5]; gene 16S): −1.80
log2 Fold Change ([5]; gene BBC10): −8.07
log2 Fold Change ([5]; gene BBC11): −7.92
log2 Fold Change ([5]; gene BB_0183): −1.46
log2 Fold Change ([5]; gene BB_0206): 1.07
log2 Fold Change ([5]; gene BB_0212): −1.15
log2 Fold Change ([5]; gene BB_0731): −1.01
log2 Fold Change ([5]; gene BB_0758): 1.32
log2 Fold Change ([5]; gene BB_0839): −1.15
log2 Fold Change ([5]; gene BB_0844): −1.41
log2 Fold Change ([5]; gene BB_A07): −1.23
log2 Fold Change ([5]; gene BB_A34): 1.06
log2 Fold Change ([5]; gene BB_B13): 1.12
log2 Fold Change ([5]; gene BB_H41): −2.37
log2 Fold Change ([5]; gene BB_I18): 1.16
log2 Fold Change ([5]; gene BB_J11): 1.02
log2 Fold Change ([5]; gene BB_J17): 1.43
log2 Fold Change ([5]; gene BB_J27): 1.18
log2 Fold Change ([5]; gene BB_J31): 1.22
log2 Fold Change ([5]; gene BB_J45): 1.22
log2 Fold Change ([5]; gene BB_K42): −1.05
log2 Fold Change ([5]; gene BB_L03): 1.06
log2 Fold Change ([5]; gene BB_N03): 1.15
log2 Fold Change ([5]; gene BB_N04): 1.06
log2 Fold Change ([5]; gene BB_O18): −1.04
log2 Fold Change ([5]; gene BB_P03): 1.06
log2 Fold Change ([5]; gene BB_U05): −1.14
log2 Fold Change ([5]; gene bmpD): −1.67
log2 Fold Change ([5]; gene glpK): −1.62
log2 Fold Change ([5]; gene tRNA-Cys-1): −1.17
Decrease in the expression of bmpD ([5]; transcriptome of hygromycin A treated KLEX2 cells vs untreated): 2.78 fold
MIC ([6]; Borrelia burgdorferi BbP1286): 0.12 µg
Minimum inhibitory concentration (MIC) ([6]; Borreliella burgdorferi P1286, microaerophilic): 0.12 µg/mL
MIC ([7]; B. burgdorferi B31 KLEX2, stable hygromycin A resistance): 4 µg/mL
MIC increase as compared to wild type parent strain ([7]; B. burgdorferi B31 KLEX2 vs parent): 16 fold
MIC ([7]; Hygromycin A resistant B. burgdorferi (HygR) (FIG. 7B)): 4 µg/mL
IC50 [8]: >512 µg/mL
